Columns and labels:
[1] = system: S. typhimurium TA 1535; test: Oxygen uptake of S. typhimurium TA 1535 cultures in minimal histidine medium, oxygen electrode (mutagen screening); assay type: cell-based, Salmonella typhimurium; details: flasks 3 and 4
Excerpt: In the device illustrated in FIG. 1, two conventional oxygen electrodes, 10, 11, of the Clark type are employed. […] Electrode 11, designated the test electrode, measures the respiration rate (O2 uptake) of the same fixed volume 13 and concentration of Ames test bacteria and media as the control electrode. In the second case, the media also contains the chemical to be evaluated. If the chemical is a carcinogen or mutagen, the O2 uptake of test electrode 11 will increase at a faster rate than that of the control. This occurs because the reversion rate, and thus the growth rate and O2 consumption rate will be higher in the test electrode 11 than in the control electrode 10. Conversely, if the chemical is not a carcinogen or a mutagen, the O2 uptake rates will be similar. Thus, by measuring the difference in O2 uptake rates between a control and a test electrode, the potential carcinogenicity and/or mutagenicity of a chemical can be evaluated. […]
The test organism, S. typhimurium TA 1535 is grown overnight, washed three times in phosphate buffer and resuspended to give OD of 0.8 (>10^8 per ml). […] At zero, four, and 32 hours, 1 ml of culture is added to 2 ml of aerated minimal glucose media in the test chamber of an oxygen electrode and the rate of oxygen uptake is measured.

[2] = system: S. typhimurium TA 1530; details: cited from earlier work
[3] = system: Saccharomyces cerevsiae; details: cited from earlier work
[4] = system: oxidative phosphorylation; details: cited from earlier work; for uncoupling: higher concentrations than 10^-9 M; for stimulation of respiration and ATP production: low concentrations (10^-9 M)

Nc1c2ccccc2nc2ccccc12 [9-amine acridine]
oxygen uptake, dependence on mutagen level [1]: dependent upon the level of the added known mutagen

O=C(O)[C@@H]1CCN1 [L-azetidine carboxylic acid]
toxicity to mutant form ([2]; mutant form of S. typhimurium TA 1530): not toxic to its mutant form | toxicity to normal form ([2]; normal form of S. typhimurium TA 1530): toxic to the normal form

NC(N)=NOCC[C@H](N)C(=O)O.O=S(=O)(O)O [cavanine sulfate]
toxicity to mutant form ([3]; mutant form of yeast): not to its mutant form | toxicity to normal form ([3]; normal form of yeast): toxic to the normal form

N[C@@H](Cc1cc(I)c(Oc2cc(I)c(O)c(I)c2)c(I)c1)C(=O)O [thyroxine]
uncoupling [4]: uncouple at higher concentrations | stimulation of respiration and ATP production [4]: stimulate respiration and ATP production

N[C@@H](Cc1cc(I)c(Oc2ccc(O)c(I)c2)c(I)c1)C(=O)O [triiodothyronine]
uncoupling [4]: uncouple at higher concentrations | stimulation of respiration and ATP production [4]: stimulate respiration and ATP production

From US4256832A, “Carcinogen and mutagen screening method and apparatus” (BioResearch Inc., priority 1978, dated 1981)
